The text below walks through data of US20030088312A1, “Use of cladribine on a stent to prevent restenosis” (priority 2000, published 2003).

The assay concerns human smooth muscle cells. Put plainly: Inhibition of PDGF-stimulated human smooth muscle cell proliferation (cell count, day 6). The class given is cell-based. Conditions: ratio of IC50 values, SMC vs EC. Here is the method: To assess the ability of cladribine to prevent cell proliferation, human smooth muscle or endothelial cells (Clonetics, Walkersville, Md.) were seeded at a density of 2000 cells/cm^2 (approximately […] cells/well) into each well of 12-well plates and cultured with 1.5 ml of growth medium containing 5% fetal calf serum (FCS). After 24 hours, the growth medium was changed and fresh medium containing 10 ng/ml platelet-derived growth factor AB (PDGF AB; LIFE Technologies), as well as various concentrations of cladribine (0.001-10,000 nM) were added with triplicate wells. Medium was replaced with fresh cladribine-containing medium after 3 days. On day six, cells were detached by trypsinization to yield a cell suspension, lightly centrifuged to pellet and then counted manually using a Neubauer hemacytometer system. Clee viability was assessed by trypan blue exclusion.
Table 1 provides the percent inhibition of the various tested concentrations of cladribine on human smooth muscle and endothelial cells in culture. Cladribine produced a concentration-related decrease in the proliferation of both smooth muscle and endothelial cells in this model system. […]

SMILES strings stand for the structures.

Turning to `Nc1nc(Cl)nc2c1ncn2[C@H]1C[C@H](O)[C@@H](CO)O1` [Cladribine], the “potency as inhibitor of smooth muscle cells relative to endothelial cells” value is reported as “approximately twice as potent”.
